# Measurements: paper PMC12845078 (Pharmaceuticals, 2025)
# Marks after values point to notes of the source that are not given here.
# Columns and labels:
# [1] = Plasma protein binding (rapid equilibrium dialysis), human; type: in vitro ADME; conditions: pH 7.4, read-out: Plasma Protein Binding (converted)
# Experimental: (§3) After incubation for 20 min, a portion of the whole blood was centrifuged at 2500× g for 10 min at 4 °C to separate plasma; another portion of the whole blood was subjected to three cycles of freeze–thawing and ultrasonicated for 10 min to disrupt cells. Equal volumes of plasma and whole blood samples were added to the whole blood and plasma specimens, respectively, followed by protein precipitation with acetonitrile containing an internal standard (IS). […] The RED inserts were placed in the matching incubation plate: 200 µL of drug-containing matrix were added to the sample chamber, and 400 µL of PBS buffer (pH: 7.4) were added to the buffer chamber. After incubation in a constant-temperature shaking incubator for 6 h (37 °C), samples from the sample chamber and buffer chamber were diluted 1:1 with PBS or matrix, respectively, and proteins were precipitated with acetonitrile containing IS.
# [2] = Pharmacokinetics of MT, 6-HMT and CBD in SD rats (i.v. and oral); conditions: for MRT last: MRT(0–t)
# Experimental: The drugs were dissolved in the same manner as described previously, with an administration volume of 5 mL/kg for all groups. Blood samples were collected at the time points of pre-administration and 0.033 (only for the intravenous administration group), 0.083, 0.25, 0.5, 0.75, 1, 1.5, 2, 4, 6, 8, and 12 h post-administration.
# (§1) The column temperature was set at 40 °C.
# [3] = Plasma protein binding (rapid equilibrium dialysis), dog; conditions: beagle, dog, plasma, pH 7.4
# Experimental: as §3
# [4] = system: CYP1A2-mediated metabolism of MT; test: Static DDI model prediction of CBD's impact on MT exposure, beagle; design: species or system beagle dog; conditions: input of static DDI model
# Excerpt: (§2) (AUC when co-administered with the inhibitor) to AUC[contr] (AUC without the inhibitor).
# [5] = Plasma protein binding (rapid equilibrium dialysis), mouse; type: in vitro ADME; conditions: pH 7.4
# Experimental: as §3
# [6] = Liver microsome protein binding, human; type: in vitro ADME; conditions: liver microsomes, pH 7.4
# Experimental: as §3
# [7] = Pharmacokinetics of MT, 6-HMT and CBD in beagles after oral administration; conditions: male, beagle, dog, in vivo, po, 3 mg/kg, p.o.; for AUC(0-t) / AUC(0-inf) / Cmax / MRT last / Tmax: beagles; for MRT last: MRT(0–t); for half-life: t1/2, beagles
# Experimental: Twelve male healthy adult beagles (weighing 10 ± 2 kg) were randomly divided into two groups. […] The drugs were dissolved in a physiological saline solution containing 5% castor oil, with an administration volume of 2 mL/kg. Blood samples were collected at the time points of pre-administration and 0.083, 0.25, 0.5, 0.75, 1, 1.5, 2, 4, 6, 8, and 12 h post-administration.
# as §1
# [8] = Plasma protein binding (rapid equilibrium dialysis), rat; type: in vitro ADME; conditions: plasma, pH 7.4
# Experimental: as §3
# [9] = Liver microsome protein binding, rat; type: in vitro ADME; conditions: liver microsomes, pH 7.4
# [10] = system: CYP1A2-mediated metabolism of MT; test: Static DDI model prediction of CBD's impact on MT exposure, rat; conditions: input of static DDI model
# Excerpt: as §2
# PEPT1 = molecular target: T1, PEPT1 (Homo sapiens, UniProt P46059); test: Uptake and uptake inhibition in MDCK/hPEPT1 cell model; type: cell-based; conditions: 4 °C and 37 °C
# T1 construct: host or cells: MDCK
# T1 sequence (P46059 1-708): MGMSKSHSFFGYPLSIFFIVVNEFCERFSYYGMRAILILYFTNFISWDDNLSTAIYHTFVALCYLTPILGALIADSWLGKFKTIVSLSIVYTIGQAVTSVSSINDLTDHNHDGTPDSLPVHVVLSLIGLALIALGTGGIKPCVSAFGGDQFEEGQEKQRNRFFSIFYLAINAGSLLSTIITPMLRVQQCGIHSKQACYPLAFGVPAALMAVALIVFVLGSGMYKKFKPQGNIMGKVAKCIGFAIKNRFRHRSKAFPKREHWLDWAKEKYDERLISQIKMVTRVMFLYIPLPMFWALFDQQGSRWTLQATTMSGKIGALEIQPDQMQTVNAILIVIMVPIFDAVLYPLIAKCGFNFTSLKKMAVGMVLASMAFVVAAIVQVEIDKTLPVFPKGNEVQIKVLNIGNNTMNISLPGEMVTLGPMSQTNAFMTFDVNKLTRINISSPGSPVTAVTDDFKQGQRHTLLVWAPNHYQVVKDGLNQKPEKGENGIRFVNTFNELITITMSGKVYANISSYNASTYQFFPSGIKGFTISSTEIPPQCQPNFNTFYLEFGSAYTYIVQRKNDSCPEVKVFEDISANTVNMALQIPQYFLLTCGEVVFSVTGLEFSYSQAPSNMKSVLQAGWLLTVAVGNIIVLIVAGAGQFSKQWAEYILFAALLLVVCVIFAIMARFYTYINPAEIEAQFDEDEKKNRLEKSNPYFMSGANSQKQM
# Experimental: MDCK-PEPT1 cells were seeded into 24-well plates at a density of approximately 5 × 10^5 cells per well. When the cell confluency reached 60–70%, the culture medium was aspirated, and the cells were rinsed twice with HBSS pre-warmed to 37 °C. […] After incubation at 37 °C for 10 min, the buffer was aspirated, and ice-cold HBSS was immediately added to terminate the reaction, followed by rinsing three times. After drying the residual liquid, 200 μL of pure water were added to each well, and the cells were lysed by repeated freezing–thawing in liquid nitrogen three times. The cell lysates were collected, and the protein content was determined by the BCA method.
# Cell uptake assessment: The concentration of the analyte in cells was corrected using the protein concentration of the cell lysate in each well.(4) Conclysate=Concdrug/ConcProtein
# The uptake rate (U, pmol/mg/min) of the compound was calculated following Formula (5).(5) U=Clysate/P×t where Clysate is the amount of drug in the cell lysate (ng); P is cellular protein content (mg); t is incubation time (min).
# The uptake ratio of the compound was calculated following Formula (6)(6) UR=U/ UMOCK where UMOCK is the uptake rate in MOCK-MDCK cells (pmol/mg/min).
# The inhibition ratio was calculated following Formula (7)(7) IR=(1−Uwith inhibitor−Umock with inhibitor/Uwithout inhibitor−Umock without inhibitor)×100%
# [11] = Liver microsome protein binding, dog; type: in vitro ADME; conditions: beagle, liver microsomes, pH 7.4
# Experimental: as §3
# [12] = Brain tissue protein binding, rat; type: in vitro ADME; conditions: pH 7.4
# Experimental: as §3
# [13] = Pharmacokinetics of MT and CBD in rats after pre-administration of ABT
# Experimental: Twelve SD rats were randomly divided into two groups. Both groups were first given an intragastric administration of 1-aminobenzotriazole (ABT) at a dose of 200 mg/kg. […] The administration volume for all groups was 5 mL/kg. […] Approximately 50 μL of venous blood were collected into heparin sodium anticoagulant tubes and placed on ice. The sample processing and storage methods were the same as described previously.
# Subsequently, the resultant mixture was vortexed for 1 minute and centrifuged at 4 °C for 10 min at 18,800× g. […] The lowest limit of quantification (LLOQ) was established at 2 ng/mL.
# Kromasil 100-5-C8 (2.1 × 50 mm) was selected for the separation of samples. The mobile phase consisted of solvent A (water with 0.1% formic acid and 5 mM ammonium acetate) and solvent B (methanol with 0.1% formic acid). […] The column temperature was set at 40 °C. The two eluents were 0.1% formic acid and 5 mM ammonium acetate in water (A) and 0.1% formic acid in methanol (B). […] The main mass spectrometry detection parameters were: dry gas 10 L/min, heated gas 10 L/min, collision gas 270 kPa, ion source temperature 300 °C, desolvation temperature 250 °C, and heating module temperature 400 °C.
# Pharmacokinetic parameters: GraphPad Prism 10.1 software was utilized to draw the curves. Noncompartmental analysis was selected to calculate the major PK parameters, including clearance (CL), volume (V), half-life (t1/2), peak concentration (Cmax), and area under the curve (AUC), using WinNonlin 8.1.
# [14] = male, Sprague-Dawley, rat, in vivo, po, 5 mg/kg, rats, p.o., MT + CBD (5 + 5) mg/kg
# [15] = male, Sprague-Dawley, rat, in vivo, po, 5 mg/kg, rats, p.o., MT + CBD (5 + 20) mg/kg
# [16] = male, Sprague-Dawley, rat, in vivo, po, 5 mg/kg, rats, p.o., MT + Vehicle 5 mg/kg
# [17] = Sprague-Dawley, rat, in vivo, po, 5 mg/kg
structure (smiles),measurement,setting,value
"COc1ccc2[nH]cc(CCNC(C)=O)c2c1 [MT, Melatonin]",fraction unbound at 6 h,[1],0.388
same,AUC(0-t),"[2]; male, Sprague-Dawley, rat, in vivo, iv, 1 mg/kg, AUC(0–t), rats, i.v., MT + CBD (1 + 1) mg/kg",260 ng·h/mL
same,MRT last,"[2]; male, Sprague-Dawley, rat, in vivo, iv, 1 mg/kg, rats, i.v., MT + CBD (1 + 1) mg/kg",10.2 min
same,bioavailability,"[2]; male, Sprague-Dawley, rat, in vivo, po, 5 mg/kg",20.5%
same,AUC(0-t),"[2]; male, Sprague-Dawley, rat, in vivo, po, 5 mg/kg, AUC(0–1h), rats, p.o., MT + CBD (5 + 5) mg/kg",114 ng·h/mL
same,AUC(0-t),"[2]; male, Sprague-Dawley, rat, in vivo, po, 5 mg/kg, AUC(0–1h), rats, p.o., MT + CBD (5 + 20) mg/kg",65.2 ng·h/mL
same,AUC(0-t),"[2]; male, Sprague-Dawley, rat, in vivo, po, 5 mg/kg, AUC(0–1h), rats, p.o., MT + Vehicle 5 mg/kg",241 ng·h/mL
same,AUC(0-t),"[2]; male, Sprague-Dawley, rat, in vivo, po, 5 mg/kg, AUC(0–t), rats, p.o., MT + CBD (5 + 5) mg/kg",138 ng·h/mL
same,AUC(0-t),"[2]; male, Sprague-Dawley, rat, in vivo, po, 5 mg/kg, AUC(0–t), rats, p.o., MT + CBD (5 + 20) mg/kg",121 ng·h/mL
same,AUC(0-t),"[2]; male, Sprague-Dawley, rat, in vivo, po, 5 mg/kg, AUC(0–t), rats, p.o., MT + Vehicle 5 mg/kg",267 ng·h/mL
same,Cmax,[2]; [14],212 ng/mL
same,Cmax,[2]; [15],99 ng/mL
same,Cmax,[2]; [16],588 ng/mL
same,MRT last,[2]; [14],39 min
same,MRT last,[2]; [15],79.8 min
same,MRT last,[2]; [16],40.2 min
same,Tmax,[2]; [14],19.8 min
same,Tmax,[2]; [15],8.4 min
same,Tmax,[2]; [16],10.2 min
same,effect of co-administered MT on pharmacokinetic parameters of CBD,"[2]; rats, p.o., CBD 20 mg/kg with MT 0, 5 or 20 mg/kg",does not produce obvious pharmacokinetic-based interactions with CBD
same,t1/2,"[2]; rats, p.o., MT + CBD (5 + 5) mg/kg",0.66 (0.14) h
same,t1/2,"[2]; rats, p.o., MT + CBD (5 + 20) mg/kg",1.80 (0.94) * h
same,"MT total exposure with CBD, as percent of MT alone","[2]; rats, p.o., high CBD dose",45%
same,fraction unbound at 6 h,[3],0.364
same,"fm(CYP1A2), proportion of MT metabolized by CYP1A2",[4],0.92
same,fraction unbound at 6 h,[5],0.451
same,fraction unbound at 6 h,[6],0.979
same,AUC(0-t),[7]; MT + CBD (3 + 3) mg/kg,2540 ng·h/mL
same,AUC(0-t),[7]; MT + Vehicle 3 mg/kg,602 ng·h/mL
same,AUC(0-inf),[7]; MT + CBD (3 + 3) mg/kg,2550 ng·h/mL
same,AUC(0-inf),[7]; MT + Vehicle 3 mg/kg,612 ng·h/mL
same,Cmax,[7]; MT + CBD (3 + 3) mg/kg,1360 ng/mL
same,Cmax,[7]; MT + Vehicle 3 mg/kg,1080 ng/mL
same,MRT last,[7]; MT + CBD (3 + 3) mg/kg,99.6 min
same,MRT last,[7]; MT + Vehicle 3 mg/kg,30 min
same,Tmax,[7]; MT + CBD (3 + 3) mg/kg,42.6 min
same,Tmax,[7]; MT + Vehicle 3 mg/kg,13.2 min
same,half-life,[7]; MT + CBD (3 + 3) mg/kg,55.2 min
same,half-life,[7]; MT + Vehicle 3 mg/kg,19.8 min
same,fraction unbound at 6 h,[8],0.425
same,fraction unbound at 6 h,[9],0.972
same,"fm(CYP1A2), proportion of MT metabolized by CYP1A2",[10],0.92
same,"uptake rate of MT, MOCK cells vs transfected cells",PEPT1,no difference
same,fraction unbound at 6 h,[11],0.78
same,fraction unbound at 6 h,[12],0.315
same,AUC of MT reduced by co-administration of CBD,[13]; ABT-treated rats,2.29 fold
same,Cmax of MT reduced by co-administration of CBD,[13]; ABT-treated rats,2.3 fold
same,AUC(0-t),[13]; [17],8840 ng·h/mL
same,Cmax,[13]; [17],2100 ng/mL
same,Tmax,[13]; [17],30 min
same,half-life,[13]; [17],78.6 min
